Reference: patent publication US9718790B2, “Triazine derivative and pharmaceutical composition having an analgesic activity comprising the same” (SHIONOGI & CO., LTD., priority 2010, dated 2017)
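Note: stimulus was 50 nM ATP with fluorescence followed for 3 min, and the response per well was peak post-ATP fluorescence divided by the reading at measurement start.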

Each molecule was assayed against human P2X3 receptor (Homo sapiens (Human), UniProt P56373) (assay: Evaluation of human P2X3 receptor inhibitory activity (Fluo-3 calcium fluorescence, FDSS 3000, ATP stimulation)). Details: C6BU-1 cells stably expressing human P2X3 receptor.
Chain of human P2X3 receptor (P56373 whole entry): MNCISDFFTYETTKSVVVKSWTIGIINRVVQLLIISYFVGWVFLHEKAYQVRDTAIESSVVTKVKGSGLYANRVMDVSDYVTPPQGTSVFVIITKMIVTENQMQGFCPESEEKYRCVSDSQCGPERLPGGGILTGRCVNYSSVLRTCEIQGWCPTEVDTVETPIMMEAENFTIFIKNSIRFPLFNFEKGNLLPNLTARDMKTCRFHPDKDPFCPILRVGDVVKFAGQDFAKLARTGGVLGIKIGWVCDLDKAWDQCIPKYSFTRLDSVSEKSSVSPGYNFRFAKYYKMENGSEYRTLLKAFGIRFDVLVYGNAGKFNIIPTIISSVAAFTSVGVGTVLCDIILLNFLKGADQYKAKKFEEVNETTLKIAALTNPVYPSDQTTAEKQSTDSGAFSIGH
Type: cell-based
In the case of `Cc1cc(/N=c2\[nH]c(=O)n([C@@H]3CN[C@H](C(=O)O)C3)c(=O)n2Cc2ccc(Cl)cc2)ccc1OC(C)C` [Compound I-0716], the IC50 is reported as 102 nM. `Cc1ccc(Cn2c(=O)n([C@H](C)[C@H](C)C(=O)O)c(=O)[nH]/c2=N\c2ccc(OC3CCC3)cc2)cc1` [Compound I-1457] showed an IC50 of 14 nM. With `CCn1c(=O)[nH]/c(=N\c2ccc(Oc3cncc(C(=O)OC)c3)cc2)n(Cc2ccc(Cl)cn2)c1=O` [Compound I-2154] the IC50 was 133 nM. In the case of `COC(=O)[C@@H](C)[C@@H](C)n1c(=O)[nH]/c(=N\c2ccc(CC(C)C)c(Cl)c2)n(Cc2ccc(C)cc2)c1=O` [Compound I-1439], the IC50 is reported as 39 nM. Molecule `Cc1ccc(Cn2c(=O)n(C[C@H](C)C(=O)O)c(=O)[nH]/c2=N\c2ccc(OC3CCC3)cc2)cc1` [Compound I-1220] has an IC50 of 13 nM. `CC[C@H](C)Oc1ccc(/N=c2\[nH]c(=O)n(C[C@H](C)C(=O)O)c(=O)n2Cc2ccc(Cl)cc2)cc1` [Compound I-0755] gave an IC50 of 24 nM. In the case of `COC(=O)[C@@H](C)Cn1c(=O)[nH]/c(=N\c2ccc(Cc3ccncc3)cc2)n(Cc2ccc(C)cc2)c1=O` [Compound I-1241], the IC50 is reported as 108 nM. Molecule `CC(C)Oc1ccc(/N=c2\[nH]c(=O)n(C(C)(C)CC(=O)O)c(=O)n2Cc2ccc(Cl)cc2)cc1Cl` [Compound I-0817] has an IC50 of 27 nM. In the case of `O=c1[nH]/c(=N\c2ccc(Oc3ccnc(CO)c3)cc2)n(Cc2ccc(Cl)cc2)c(=O)n1CCO` [Compound I-1986], the IC50 is reported as 16 nM. For `COC(=O)[C@@H](C)Cn1c(=O)[nH]/c(=N\c2ccc(NS(C)(=O)=O)cc2)n(Cc2ccc(C)cc2)c1=O` [Compound I-1416], the IC50 was 141 nM. For `Cc1ccc(/N=c2\[nH]c(=O)n(C[C@H](C)C(=O)O)c(=O)n2Cc2ccc(Cl)cc2)cc1Cl` [Compound I-0696], the IC50 was 129 nM. `CCCOc1ccc(/N=c2\[nH]c(=O)n(C[C@H](C)C(=O)O)c(=O)n2Cc2ccc(Cl)cc2)cc1` [Compound I-0623] was tested, and the IC50 was 20 nM. In the case of `COC(=O)[C@@H](C)Cn1c(=O)[nH]/c(=N\c2ccc(OC(C)C)cc2)n(Cc2ccc(F)cc2)c1=O` [Compound I-0618], the IC50 is reported as 121 nM. For `Cc1ccc(Cn2c(=O)n(CCCC(=O)O)c(=O)[nH]/c2=N\c2ccc3nc(C)sc3c2)cc1` [Compound I-2124], the IC50 was 27 nM. Work on `CCOC(=O)CC(C)(C)n1c(=O)[nH]/c(=N\c2ccc(OC(C)C)c(Cl)c2)n(Cc2ccc(Cl)cc2)c1=O` [Compound I-0810] yielded an IC50 of 16 nM. Molecule `CC(C)Oc1ccc(/N=c2\[nH]c(=O)n(CCS(N)(=O)=O)c(=O)n2Cc2ccc(Cl)cc2)cc1F` [Compound I-0693, 1-(4-chlorobenzyl)-6-(3-fluoro-4-isopropoxyphenylimino)-3-(2-sulfamoylethyl)-1,3,5-triazinane-2,4-dion] has an IC50 of 13 nM. In the case of `CNC(=O)c1cc(Oc2ccc(/N=c3\[nH]c(=O)n(C)c(=O)n3Cc3ccc(C)cc3)cc2)ccn1` [Compound I-2012], the IC50 is reported as 9 nM. In the case of `CC[C@@H](CC(=O)O)n1c(=O)[nH]/c(=N\c2ccc(OC(C)C)c(C)c2)n(Cc2ccc(Cl)cc2)c1=O` [Compound I-0798], the IC50 is reported as 465 nM. Molecule `Cc1cc(Oc2ccc(/N=c3\[nH]c(=O)n(CCC(=O)O)c(=O)n3CC3CCC(C)CC3)cc2)ccn1` (stereo not drawn) [Compound I-1976] has an IC50 of 17 nM. Work on `Cc1cc(/N=c2\[nH]c(=O)n(-c3ccc(C(=O)O)cc3)c(=O)n2Cc2ccc(Cl)cc2)ccc1OC(C)C` [Compound I-0762] yielded an IC50 of 82 nM. With `CCOC(=O)CCn1c(=O)[nH]/c(=N\c2ccc(OC(C)C)c(CO)c2)n(Cc2ccc(C)cc2)c1=O` [Compound I-1424] the IC50 was 35 nM. `CC(C)Oc1ccc(/N=c2\[nH]c(=O)n(CCCCC(=O)O)c(=O)n2Cc2ccc(Cl)cc2)cc1Cl` [Compound I-2184] gave an IC50 of 10 nM. In the case of `CCOC(=O)CCn1c(=O)[nH]/c(=N\c2ccc(Oc3ccncc3)cc2)n(Cc2ccc(Cl)cc2)c1=O` [Compound I-1205], the IC50 is reported as 2 nM. In the case of `CCCn1c(=O)[nH]/c(=N\c2ccc(Oc3ccc(C(N)=O)nc3)cc2)n(Cc2ccc(Cl)cc2)c1=O` [Compound I-2203], the IC50 is reported as 1 nM. `Cc1cc(/N=c2\[nH]c(=O)n([C@@H]3CCOC3=O)c(=O)n2Cc2ccc(Cl)cc2)ccc1OC(C)C` [Compound I-0808] was tested, and the IC50 was 203 nM. `CC1CCC(Cn2c(=O)n(CCC(N)=O)c(=O)[nH]/c2=N\c2ccc(OC(C)C)c(Cl)c2)CC1` (stereo not drawn) [Compound I-2020] showed an IC50 of 6 nM. `Cc1cc(/N=c2\[nH]c(=O)n(Cc3cccn(CCOC4CCCCO4)c3=O)c(=O)n2Cc2ccc(Cl)cc2)ccc1OC(C)C` (stereo not drawn) [Compound I-0712] gave an IC50 of 25 nM. With `COc1cc(/N=c2\[nH]c(=O)n(CCOC3CCCCO3)c(=O)n2Cc2ccc(Cl)cc2)ccc1OC(C)C` (stereo not drawn) [Compound I-2005] the IC50 was 3 nM.

Same assay, conditions: C6BU-1 cells stably expressing human P2X3 receptor, Fluo-3 fluorescence, FDSS 3000
Molecule `Cc1ccc(Cn2c(=O)n(C[C@H](C)C(=O)O)c(=O)[nH]/c2=N\c2ccc(CC3CCCC3)cc2)cc1` [Compound I-1100] has an IC50 of 43 nM. Work on `CCCCCOc1ccc(/N=c2\[nH]c(=O)n(C[C@H](C)C(=O)O)c(=O)n2Cc2ccc(C)cc2)cc1` [Compound I-1065] yielded an IC50 of 85 nM. Work on `CC(C)Oc1ccc(/N=c2\[nH]c(=O)n(CC3(CC(=O)O)CC3)c(=O)n2Cc2ccc(Cl)cc2)cc1Cl` [Compound I-0981] yielded an IC50 of 10 nM. `C[C@@H](C(=O)O)[C@H](C)n1c(=O)[nH]/c(=N\c2ccc3c(c2)nc(-c2ccccc2)n3C)n(Cc2ccc(Cl)cc2)c1=O` [Compound I-1812] was tested, and the IC50 was 630 nM. `C[C@@H](C(=O)O)[C@H](C)n1c(=O)[nH]/c(=N\c2ccc3[nH]ncc3c2)n(Cc2ccc(Cl)cc2)c1=O` [Compound I-1743] showed an IC50 of 861 nM. For `CCOc1ccc(/N=c2\[nH]c(=O)n(CC3COC(C)(C)OC3)c(=O)n2Cc2ccc(Cl)cc2)cc1Cl` [Compound I-1886], the IC50 was 3 nM. In the case of `Cc1ccc(Cn2c(=O)n(C[C@H](C)C(=O)O)c(=O)[nH]/c2=N\c2cccc(C3=CCCCC3)c2)cc1` [Compound I-1112], the IC50 is reported as 872 nM. `COC(=O)[C@@H](C)Cn1c(=O)[nH]/c(=N\c2ccc(OCC3CC3)c(Cl)c2)n(Cc2ccc(C)cc2)c1=O` [Compound I-0958] gave an IC50 of 30 nM. For `COC(=O)[C@@H](C)Cn1c(=O)[nH]/c(=N\c2cccc(C3=CCCC3)c2)n(Cc2ccc(C)cc2)c1=O` [Compound I-1084], the IC50 was 392 nM. `C[C@@H](C(=O)O)[C@H](C)n1c(=O)[nH]/c(=N\c2ccc3oc4c(c3c2)CCCC4)n(Cc2ccc(Cl)cc2)c1=O` [Compound I-1748] gave an IC50 of 236 nM. In the case of `Cc1ccc(Cn2c(=O)n(CCC(=O)NS(C)(=O)=O)c(=O)[nH]/c2=N\c2ccc(OC(C)C)c(Cl)c2)cc1` [Compound I-1874], the IC50 is reported as 13 nM. Molecule `O=C(NCC(F)(F)F)c1cc(Oc2ccc(/N=c3\[nH]c(=O)[nH]c(=O)n3Cc3ccc(Cl)cc3)cc2)ccn1` [Compound I-1898] has an IC50 of 11 nM. In the case of `CCc1oc2ccc(/N=c3\[nH]c(=O)n(CCO)c(=O)n3Cc3ccc(Cl)cc3)cc2c1C` [Compound I-1633], the IC50 is reported as 16 nM. `CCOc1ccc(/N=c2\[nH]c(=O)n([C@@H](C)[C@@H](C)C(=O)O)c(=O)n2Cc2ccc(Cl)cc2)cc1Cl` [Compound I-0922] gave an IC50 of 29 nM.

Same assay, conditions: human P2X3 receptor, Test Example 1
`Cn1c(=O)[nH]/c(=N\c2ccc(Oc3cc(C(=O)O)ncn3)cc2)n(Cc2ccc(Cl)cc2)c1=O` [Compound I-2447] gave an IC50 of 10 nM. `O=C(O)c1cc(Oc2ccc(/N=c3\[nH]c(=O)n(C4CC4)c(=O)n3Cc3ccc(Cl)cc3)cc2)ccn1` [Compound I-2330] gave an IC50 of 7 nM. Work on `CNC(=O)Cn1c(=O)[nH]/c(=N\c2ccc(Oc3ncns3)cc2)n(Cc2ccc(Cl)cc2)c1=O` [Compound I-2673] yielded an IC50 of 7 nM. `O=c1[nH]/c(=N\c2ccc(Oc3cccc(F)n3)cc2)n(Cc2ccc(Cl)cc2)c(=O)n1C[C@H](O)CO` [Compound I-2436] gave an IC50 of 4 nM. For `C[C@@H](CO)n1c(=O)[nH]/c(=N\c2ccc(Oc3ccon3)cc2)n(Cc2ccc(Cl)cc2)c1=O` [Compound I-2489], the IC50 was 50 nM. `CCn1c(=O)[nH]/c(=N\c2ccc(Oc3cnc(C(N)=O)cn3)cc2)n(Cc2ccc(Cl)cc2)c1=O` [Compound I-2388] showed an IC50 of 3 nM. `CCn1c(=O)[nH]/c(=N\c2ccc(Oc3ccnc(C(N)=O)c3)cc2)n(Cc2ccc(F)cc2)c1=O` [Compound I-2361] was tested, and the IC50 was 15 nM. For `CCOC(=O)C1(Cn2c(=O)[nH]/c(=N\c3ccc4nc(C)sc4c3)n(Cc3ccc(Cl)cc3)c2=O)CC1` [Compound I-1537], the IC50 was 3 nM. `Cc1cnc(Oc2ccc(/N=c3\[nH]c(=O)n(CC(=O)O)c(=O)n3Cc3ccc(Cl)cc3)cc2)s1` [Compound I-2624] gave an IC50 of 368 nM. Work on `Cc1ccc(Cn2c(=O)n(C)c(=O)[nH]/c2=N\c2ccc(Oc3cc(C#N)ccn3)cc2)cc1` [Compound I-2340] yielded an IC50 of 13 nM. In the case of `CCn1c(=O)[nH]/c(=N\c2ccc(Oc3cncc(C(=O)OC)n3)cc2)n(Cc2ccc(C)cc2)c1=O` [Compound I-2467], the IC50 is reported as 7 nM. `O=C(O)Cn1c(=O)[nH]/c(=N\c2ccc(Oc3cccc(F)n3)cc2)n(Cc2ccc(Cl)cc2)c1=O` [Compound I-2564] was tested, and the IC50 was 269 nM. For `NC(=O)CCn1c(=O)[nH]/c(=N\c2ccc(Oc3cccc(F)n3)cc2)n(Cc2ccc(Cl)cc2)c1=O` [Compound I-2654], the IC50 was 9 nM. `Cc1cc(Oc2ccc(/N=c3\[nH]c(=O)n(CC(CO)CO)c(=O)n3Cc3ccc(Cl)cc3)cc2)no1` [Compound I-2353] gave an IC50 of 8 nM. In the case of `CC1(C)OCC(Cn2c(=O)[nH]/c(=N\c3ccc(Oc4ccon4)cc3)n(Cc3ccc(Cl)cc3)c2=O)CO1` [Compound I-2287], the IC50 is reported as under 4 nM. For `COCc1c(Cl)cc(/N=c2\[nH]c(=O)n(C[C@H](C)C(=O)O)c(=O)n2Cc2ccc(C)cc2)cc1Cl` [Compound I-1501], the IC50 was 11 nM. With `Cc1nsc(Oc2ccc(/N=c3\[nH]c(=O)n(CC(C)(CO)CO)c(=O)n3Cc3ccc(Cl)cc3)cc2)n1` [Compound I-2576] the IC50 was 3 nM. `O=c1[nH]/c(=N\c2ccc(Oc3ccon3)c(F)c2)n(Cc2ccc(Cl)cc2)c(=O)n1CCO` [Compound I-2438] showed an IC50 of 7 nM. `CCOCc1ccc(/N=c2\[nH]c(=O)n(C[C@H](C)C(=O)O)c(=O)n2Cc2ccc(C)cc2)cc1Cl` [Compound I-1502] was tested, and the IC50 was 107 nM. Molecule `CC(CO)(CO)Cn1c(=O)[nH]/c(=N\c2ccc(Oc3nccs3)cc2)n(Cc2ccc(F)cc2)c1=O` [Compound I-2508] has an IC50 of 13 nM. For `Cc1ccc(Cn2c(=O)n(CC(F)(F)C(=O)O)c(=O)[nH]/c2=N\c2ccc(OC(C)C)c(C)c2)cc1` [Compound I-0857], the IC50 was 19 nM.
